Laboratory results published in patent publication US20100267561A1, “HERBICIDAL PYRIDAZINONE DERIVATIVES” (priority 2007, published 2010).

Columns and labels:
Assay type in all cases: in vivo
[1] = test system: blackgrass (Alopecurus myosuroides); assay: Test C pre-/postemergence plant response; details: Preemergence
Method in brief: (§1)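 Seeds are planted and sprayed preemergence, while established plants at the 1- to 4-leaf stage (2 to 18 cm) receive postemergence sprays of the same surfactant-containing, non-phytotoxic solvent formulation. After 15 to 25 days under controlled conditions, injury is scored visually from 0 (no effect) to 100 (complete control).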

[2] = test system: canarygrass (Phalaris minor); assay: Test C pre-/postemergence plant response; details: Preemergence
Method in brief: as §1

[3] = test system: winter barley (Hordeum vulgare); assay: Test C pre-/postemergence plant response; details: Preemergence
Method in brief: as §1

[4] = test system: Italian ryegrass (Lolium multiflorum); assay: Test C pre-/postemergence plant response; details: Preemergence
Method in brief: as §1

[5] = test system: spring wheat (Triticum aestivum); assay: Test C pre-/postemergence plant response; details: Preemergence
Method in brief: as §1

[6] = test system: pigweed (Amaranthus retroflexus); assay: Test C pre-/postemergence plant response; details: Preemergence
Method in brief: as §1

[7] = test system: green foxtail (Setaria viridis); assay: Test C pre-/postemergence plant response; details: Preemergence
Method in brief: as §1

[8] = test system: wild mustard (Sinapis arvensis); assay: Test C pre-/postemergence plant response; details: Preemergence
Method in brief: as §1

[9] = test system: annual bluegrass (Poa annua); assay: Test C pre-/postemergence plant response; details: Preemergence, scale 0 to 100 (0 no effect, 100 complete control)
Method in brief: as §1

[10] = test system: winter wheat (Triticum aestivum); assay: Test C pre-/postemergence plant response; details: Preemergence
Method in brief: as §1

[11] = test system: spring barley (Hordeum vulgare); assay: Test C pre-/postemergence plant response; details: Preemergence
Method in brief: as §1

[12] = test system: downy bromegrass (Bromus tectorum); assay: Test C pre-/postemergence plant response; details: Preemergence
Method in brief: as §1

wild oat (Avena fatua) = assay: Test C pre-/postemergence plant response; details: Preemergence
Method in brief: as §1

[13] = test system: windgrass (Apera spica-venti); assay: Test C pre-/postemergence plant response; details: Preemergence
Method in brief: as §1

rice (Oryza sativa) = assay: Test B flooded paddy test plant response
Method in brief: (§2)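 Paddy-water application to 2-leaf plants in pots held under 3 cm of flooding; response is a 0–100 visual control rating against controls after 13 to 15 days, and a dash marks a missing result.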

[14] = test system: ducksalad (Heteranthera limosa); assay: Test B flooded paddy test plant response
Method in brief: as §2

[15] = test system: umbrella sedge (Cyperus difformis); assay: Test B flooded paddy test plant response
Method in brief: as §2

[16] = 8 g ai/ha, scale 0 to 100 (0 no effect, 100 complete control)
[17] = 16 g ai/ha, scale 0 to 100 (0 no effect, 100 complete control)
[18] = 31 g ai/ha, scale 0 to 100 (0 no effect, 100 complete control)
[19] = 62 g ai/ha, scale 0 to 100, 0 no effect, 100 complete control
[20] = Flood (flooded paddy test), 62 g ai/ha, scale 0 to 100, 0 no effect, 100 complete control
[21] = Flood (flooded paddy test), 125 g ai/ha, scale 0 to 100, 0 no effect, 100 complete control
[22] = Flood (flooded paddy test), 250 g ai/ha, scale 0 to 100, 0 no effect, 100 complete control
[23] = Flood, 31 g ai/ha, scale 0 to 100

CCc1cc(-c2ccc(Cl)cc2)nn1-c1c(OC(=O)OC(C)C)cnn(C)c1=O [Compound 41]
Plant response rating, Blackgrass [1, 16]: 100
Plant response rating, Blackgrass [1, 17]: 100
Plant response rating, Blackgrass [1, 18]: 100
Plant response rating, Blackgrass [1, 19]: 100
Plant response rating, Canarygrass [2, 16]: 50
Plant response rating, Canarygrass [2, 17]: 80
Plant response rating, Canarygrass [2, 18]: 98
Plant response rating, Canarygrass [2, 19]: 100
Plant response rating, Barley, Winter [3, 16]: 10
Plant response rating, Barley, Winter [3, 17]: 25
Plant response rating, Barley, Winter [3, 18]: 70
Plant response rating, Barley, Winter [3, 19]: 80
Plant response rating, Ryegrass, Italian [4, 16]: 100
Plant response rating, Ryegrass, Italian [4, 17]: 100
Plant response rating, Ryegrass, Italian [4, 18]: 100
Plant response rating, Ryegrass, Italian [4, 19]: 100
Plant response rating, Wheat, Spring [5, 16]: 0
Plant response rating, Wheat, Spring [5, 17]: 50
Plant response rating, Wheat, Spring [5, 18]: 75
Plant response rating, Wheat, Spring [5, 19]: 95
Plant response rating, Pigweed [6, 16]: 0
Plant response rating, Pigweed [6, 17]: 0
Plant response rating, Pigweed [6, 18]: 0
Plant response rating, Pigweed [6, 19]: 0
Plant response rating, Foxtail, Green [7, 16]: 98
Plant response rating, Foxtail, Green [7, 17]: 100
Plant response rating, Foxtail, Green [7, 18]: 100
Plant response rating, Foxtail, Green [7, 19]: 100
Plant response rating, Mustard, Wild [8, 16]: 0
Plant response rating, Mustard, Wild [8, 18]: 0
Plant response rating, Mustard, Wild [8, 19]: 0
Plant response rating, Bluegrass ([9]; 8 g ai/ha): 0
Plant response rating, Bluegrass ([9]; 16 g ai/ha): 0
Plant response rating, Wheat, Winter [10, 16]: 0
Plant response rating, Wheat, Winter [10, 17]: 40
Plant response rating, Wheat, Winter [10, 18]: 60
Plant response rating, Wheat, Winter [10, 19]: 98
Plant response rating, Barley, Spring [11, 16]: 0
Plant response rating, Barley, Spring [11, 17]: 65
Plant response rating, Barley, Spring [11, 18]: 75
Plant response rating, Barley, Spring [11, 19]: 90
Plant response rating, Bromegrass, Downy [12, 16]: 0
Plant response rating, Bromegrass, Downy [12, 17]: 50
Plant response rating, Bromegrass, Downy [12, 18]: 50
Plant response rating, Bromegrass, Downy [12, 19]: 80
Plant response rating, Oat, Wild (wild oat (Avena fatua); [16]): 65
Plant response rating, Oat, Wild (wild oat (Avena fatua); [17]): 75
Plant response rating, Oat, Wild (wild oat (Avena fatua); [18]): 95
Plant response rating, Oat, Wild (wild oat (Avena fatua); [19]): 95
Plant response rating, Windgrass [13, 16]: 65
Plant response rating, Windgrass [13, 17]: 98
Plant response rating, Windgrass [13, 18]: 100
Plant response rating, Windgrass [13, 19]: 100
Plant response rating, Rice (rice (Oryza sativa); [20]): 20
Plant response rating, Rice (rice (Oryza sativa); [21]): 50
Plant response rating, Rice (rice (Oryza sativa); [22]): 80
Plant response rating, Rice (rice (Oryza sativa); [23]): 15
Plant response rating, Ducksalad [14, 20]: 0
Plant response rating, Ducksalad [14, 21]: 40
Plant response rating, Ducksalad [14, 22]: 70
Plant response rating, Ducksalad [14, 23]: 0
Plant response rating, Sedge, Umbrella [15, 20]: 0
Plant response rating, Sedge, Umbrella [15, 21]: 0
Plant response rating, Sedge, Umbrella [15, 22]: 85
Plant response rating, Sedge, Umbrella [15, 23]: 0
